Experimental data reported in patent EP2792360A1, “(1aR,12bS)-8-cyclohexyl-11-fluoro-N-((1-methylcyclopropyl)sulfonyl)-1a-((3-methyl-3,8-diazabicyclo[3.2.1]oct-8-yl)carbonyl)-1,1a,2,2b-tetrahydrocyclopropa[d]indolo[2,1-a][2]benzazepine-5-carboxamide for use in treating HCV” (IP Gesellschaft für Management mbH, priority 2013, dated 2014).
In brackets after ≈: the same amount, converted by molar mass. Values belong to the compound of their own block, whether it stands above or below them.

Legend:
[1] = Solid form stability of forms of compound of formula (IV) (Temperature / Humidity Controlled XRPD, storage, suspension); format: physicochemical
Method: The term"XRPD" denotes the analytical method of X-Ray Powder Diffraction. XRPD patterns were recorded at ambient conditions in transmission geometry with a STOE STADI P diffractometer (Cu K alpha radiation source, primary monochromator, position sensitive detector, angular range 3° to 42° 2Theta, approximately 60 minutes total measurement time). The repeatability of the angular values is in the range of 2Theta ±0.2°. The term "approximately" given in combination with an angular value denotes the repeatability which is in the range of 2Theta ±0.2°. The samples were prepared and analyzed without further processing (e.g. grinding or sieving) of the substance. The relative XRPD peak intensity is dependent upon many factors such as structure factor, temperature factor, crystallinity, polarization factor, multiplicity, and Lorentz factor. Relative intensities may vary considerably from one measurement to another due to preferred orientation effects. Humidity Controlled XRPD analyses were performed in reflection geometry with a Siemens D5000 Diffractometer (Cu radiation source, Ni K beta filter, Scintillation detector, angular range 3° to 42° 2Theta, approximately 180 minutes total measurement time per humidity level). The diffractometer is equipped with an MRI (Materials Research Instruments) humidity chamber. The humidity within the chamber is adjusted with an ANSYCO humidity controller (SYCOS H-HOT). For single crystal structure analysis a single crystal sample was mounted in a nylon loop on a goniometer and measured at ambient conditions. Alternatively, the crystal was cooled in a nitrogen stream during measurement. Data were collected on a GEMINI R Ultra diffractometer from Oxford Diffraction. Cu-radiation of 1.54 A wavelength was used for data collection. Data was processed with the Oxford Diffraction CRYSALIS software. The crystal structure was solved and refined with standard crystallographic software. In this case the program ShelXTL from Bruker AXS (Karlsruhe) was used. The abbreviation "FWHM" denotes the full width at half maximum, which is a width of a peak (e.g. appearing in a spectrum, particularly in an XRPD pattern) at its half height. The term "sharp Bragg diffraction peak" in connection with X-ray diffraction patterns denotes a peak which is observed if Bragg' s law of diffraction is fulfilled. Generally, the FWHM of a sharp Bragg diffraction peak is less than 0.5° 2-theta. The term "amorphous halo" in connection with X-ray diffraction patterns denotes an approximately bell- shaped diffraction maximum in the X-ray powder diffraction pattern of an amorphous material. The FWHM of an amorphous halo is on principle larger than the FWHM of the peak of crystalline material. The terms "FTIR" and "IR" denote the analytical method of infrared spectroscopy. The IR-spectra of the samples are recorded as film of a Nujol suspension consisting of approx. 5 mg of sample and approx. 5 mg of Nujol (mineral oil) between two sodium chloride plates (cross section 13 mm) in transmittance with a FTIR- spectrometer. The spectra were recorded in spectral range between 4000 cm"1 and 600 cm"1, resolution 2 cm"1, and 300 coadded scans on a Magna 860 (thermo/Nicolet) equipped with a DTGS detector. The term "Raman" denotes the analytical method of Raman spectroscopy. For recording Raman spectra, the samples were spread on a glass slide. Raman spectra were recorded in the range of 150-3800 cm"1 with an ARAMIS (HoribaJobinYvon) Raman microscope equipped with a Peltier cooled CCD detector, at excitation of 633 nm, a 1200 1/mm grating, a x50 objective and with 3 exposures of 3s, or 7s for weak Raman scatterers. The term "DSC" denotes the analytical method of Differential Scanning Calorimetry. DSC thermograms were recorded using a Mettler-Toledo™ differential scanning calorimeter DSC820, DSC821 or DSC1 with a FRS05 sensor. […]

[2] = Hygroscopicity of solid forms of compound of formula (IV) (Ph. Eur. classification); format: physicochemical
Method: For the thermogravimetric analyses, approx. 5 - 10 mg of sample were placed in aluminum pans, accurately weighed and hermetically closed with perforation lids. […] The samples were then heated under a flow of nitrogen of about 50 mL/min using a heating rate of 5 K/min. The term "micronization" denotes a process whereby the particle size of a solid material is diminished to a d50 value of less than IOµm by the aid of a suitable method, such as milling, bashing or grinding. […] The term "anti-solvent crystallization" denotes a process wherein supers aturation and as a result thereof crystallisation is achieved by addition of an antisolvent to the product solution. The term "ambient conditions" denotes conditions as experienced in a standard laboratory, e.g. atmospheric pressure, air, ambient temperature between 18 °C and 28 °C, humidity between 30 %rH and 80 %rH. The term "hygroscopicity" describes the ability of a solid material to adsorb moisture. The hygroscopicity of a given API is characterized [European Pharmacopoeia - 6th Edition (2008), Chapter 5.11) by the increase in mass when the relative humidity is raised from 0 %rH to 90 %rH: o non-hygroscopic: weight increase Am < 0.2%; o slightly hygroscopic: weight increase 0.2% < Am < 2.0%; o hygroscopic: weight increase 2.0% < Am < 15.0%; o very hygroscopic: weight increase Am > 15.0%; o deliquescent: sufficient water is adsorbed to form a liquid. The IUPAC lamda convention (W.H. Powell, Pure & Appl. Chem. […] The bonding number "n" of a heteroatom is the sum of the total number of valence bonds to adjacent atoms, if any, and the number of attached hydrogen atoms. The bonding number of a heteroatom is standard when it has the value given in the following table: n=4: C, Si, Ge, Sn, Pb; n=3 B, N, P, As, Sb, Bi, n=2: O, S, Se, Te, Po; n=l; F, CI, Br, I, At. A nonstandard bonding number of a (neutral) heteroatom is indicated by the symbol "λη", where "n" is the bonding number. […]

[3] = physchem
Method: Anal. Chem. Instrum. […] Drug Delivery Rev. […] The binding constant (K) of the gamma-CD inclusion complex ({drug4g}) was calculated from the initial straight line portion of the phase solubility diagram by linear regression, according to the following equation [T. Higuchi et al., Adv. Anal. Chem. Instrum.

[4] = Biopharmaceutical classification system (BCS); format: physicochemical
Text: The compound of formula (IV), its manufacture, its pharmacological activity as inverse agonists of the GABA A a5 receptor, and its use for the treatment, prevention and/or delay of progression of various central nervous system (CNS) conditions have been described in WO 2009/071476. […] Res. (1995) 12:413-420]. […] If anhydrous solid forms of the compound of formula (IV), as described in WO 2009/071476, are selected for clinical development, a physical instability in terms of hydrate formation during pharmaceutical processing and/or storage of the drug product is possible. […] Further, the discovery of new solid forms of an API (polymorphs, solvates, salts, inclusion complexes) enlarges the repertoire of materials that a formulation scientist has available with which to design a pharmaceutical dosage form of a drug with a targeted release profile or other desired characteristics. Therefore, there is a need to find more solid forms of the compound of formula (IV). […] The instant invention provides novel solid forms of the compound of formula (IV) with improved solubility, dissolution rate, oral bioavailability as well as increased stability of the API. In addition, the instant invention provides novel inclusion complexes of compounds of formula (IV) with cyclodextrins. Such inclusion complexes further feature improved dissolution rate and bioavailability. […]

Structure (SMILES): Cc1onc(-c2ccc(F)cc2)c1COc1ccc(C(=O)N2CCS(=O)(=O)CC2)cn1.O [Form B ({drug4b}), (1,1-dioxo-1lambda6-thiomorpholin-4-yl)-{6-[3-(4-fluoro-phenyl)-5-methyl-isoxazol-4-ylmethoxy]-pyridin-3-yl]-methanone monohydrate]
heating temperature at which the form transforms into Form A [1]: > 100 °C | stability as compared to Form A ([1]; in the presence of humidity, e.g. at ambient conditions): substantially increased | hygroscopicity [2]: hygroscopic (hygroscopic: weight increase 2.0% < Am < 15.0%)

solubility ([3]; water): 150 mM (≈ 195 mg/mL)
Structure (SMILES): OC[C@H]1O[C@@H]2O[C@H]3[C@H](O)[C@@H](O)[C@@H](O[C@H]4[C@H](O)[C@@H](O)[C@@H](O[C@H]5[C@H](O)[C@@H](O)[C@@H](O[C@H]6[C@H](O)[C@@H](O)[C@@H](O[C@H]7[C@H](O)[C@@H](O)[C@@H](O[C@H]8[C@H](O)[C@@H](O)[C@@H](O[C@H]9[C@H](O)[C@@H](O)[C@@H](O[C@H]1[C@H](O)[C@H]2O)O[C@@H]9CO)O[C@@H]8CO)O[C@@H]7CO)O[C@@H]6CO)O[C@@H]5CO)O[C@@H]4CO)O[C@@H]3CO [gamma-cyclodextrin]

Structure (SMILES): Cc1onc(-c2ccc(F)cc2)c1COc1ccc(C(=O)N2CCS(=O)(=O)CC2)cn1 [Amorphous Form ({drug4f}), (1,1-dioxo-1lambda6-thiomorpholin-4-yl)-{6-[3-(4-fluoro-phenyl)-5-methyl-isoxazol-4-ylmethoxy]-pyridin-3-yl]-methanone]
phase change upon storage at 100 rH at ambient temperature ([1]; Form C: prolonged period, e.g. 30 days): no phase transformation has been observed | hygroscopicity [2]: slightly hygroscopic (slightly hygroscopic: weight increase 0.2% < Am < 2.0%)

Structure (SMILES): Cc1onc(-c2ccc(F)cc2)c1COc1ccc(C(=O)N2CCS(=O)(=O)CC2)cn1 [compound of formula (IV), (1,1-dioxo-1lambda6-thiomorpholin-4-yl)-{6-[3-(4-fluoro-phenyl)-5-methyl-isoxazol-4-ylmethoxy]-pyridin-3-yl]-methanone]
aqueous solubility [4]: low aqueous solubility | biopharmaceutical classification [4]: BCS 2 | type of phase solubility diagram with gamma-cyclodextrin [3]: Bs-type behavior
